Measurements reported in US12357711B2, “PSMA binding dual mode radiotracer and therapeutic” (Technische Universität München, priority 2019, dated 2025).
“And” between values parts separate entries of the source, which are not always exact repeats. Identical values can stand only once. Like-named read-outs stand apart in the source and are kept apart here.

Key:
[1] = tested on: PSMA-positive LNCaP cells; assay: Internalization in LNCaP cells, normalized to ([125I]I-BA)KuE; type: cell-based; conditions: LNCaP cells, 1 hour, 37° C.
Protocol: Data is corrected for non-specific binding ([…]) and expressed as mean±SD (n=3).
Subsequent to the removal of the culture medium, the cells were washed once with 500 μL DMEM-F12 (5% BSA) and left to equilibrate for at least 15 min at 37° C. in 200 μL DMEM-F12 (5% BSA). Each well was treated with either 25 μL of either DMEM-F12 (5% BSA) or a 100 μM PMPA solution for blockade. Next, 25 μL of the ^68Ga/^18F-labeled PSMA inhibitor (5.0 nM) was added and the cells incubated at 37° C. for 60 min. The experiment was terminated by placing the 24-well plate on ice for 3 min and consecutive removal of the medium. Each well was rinsed with 250 μL HBSS and the fractions from these first two steps combined, representing the amount of free radioligand. Removal of surface bound activity was accomplished by incubation of the cells with 250 μL of ice-cold PMPA (10 μM in PBS) solution for 5 min and rinsed again with another 250 μL of ice-cold PBS. The internalized activity was determined by incubation of the cells in 250 μL 1 M NaOH and the combination with the fraction of a subsequent wash step with 250 μL 1.0 M NaOH. Each experiment (control and blockade) was performed in triplicate. Free, surface bound and internalized activity was quantified in a γ-counter. […] Data were corrected for non-specific internalization and normalized to the specific-internalization observed for the radioiodinated reference compound.

[2] = tested on: LNCaP tumor-bearing SCID mice; assay: Biodistribution at 1 h p.i.; type: in vivo
Protocol: FIG. 10: Biodistribution (in % ID/g) of ^18E-labeled rhPSMA tracers at 1 h p.i in LNCaP tumor-bearing SCID mice. Data are expressed as mean±SD (n=4 for rhPSMA7.1, n=5 for 7.2, n=4 for 7.3, n=5 for 7.4 and n=3 for 7-rac).

[3] = target: T1, PSMA (Homo sapiens, UniProt Q04609); assay: Determination of IC50: PSMA affinity, competitive binding on LNCaP cells against ([125I]I-BA)KuE; conditions: LNCaP cells, [125I]IB-KuE c=0.2 nM, 1 h, 4° C.
T1 construct: endogenous in cells; host or cells: LNCaP cells
Protocol: Data are expressed as mean±SD (n=3, in 3 different experiments).
After removal of the culture medium, the cells were treated once with 500 μL of HBSS (Hank's balanced salt solution, Biochrom, Berlin, Germany, with addition of 1% bovine serum albumin (BSA)) and left 15 min on ice for equilibration in 200 μL HBSS (1% BSA). […] Quantification of bound and free radioligand was accomplished in a γ-counter.

[4] = tested on: LNCaP tumor bearing mouse; assay: Radio-HPLC quantification of relative changes of each rhPSMA7 isomer after [18F]rhPSMA7-rac, 30 min p.i.; type: in vivo, mice; conditions: blood, liver, kidney, urine, 30 min p.i. of [18F][natGa]rhPSMA7-rac
Protocol: Analytical reversed-phase high pressure chromatography (RP-HPLC) were performed using Shimadzu gradient systems (Shimadzu Deutschland GmbH, Neufahrn, Germany), equipped with a SPD-20A UV/Vis detector (220 nm, 254 nm). […] Eluents for all HPLC operations were water (solvent A) and acetonitrile (solvent B), both containing 0.1% trifluoroacetic acid. […] The gradient for all HPLC operations was: 5% B isocratic 0-3 min, 25-35% B 3-43 min, 95-95% B 43-48 min.
In order to quantify the relative uptake of each isomer (rhPSMA-7.1-7.4), a tumor-bearing male CB-17-SCID mouse was injected with the racemic mixture of rhPSMA-7 (180-280 MBq, SA=247-349 GBq/μmol, produced at the Klinikum rechts der Isar in a fully automated procedure). […] The eluate was diluted with water and analysed by radio-HPLC. […]
Tumour and kidneys were separately homogenised in the tissue homogeniser with 1 mL of extraction buffer (850 μL 1 M HEPES pH7.4, 100 μL 20 mM PMPA and 100 μL 1M NaCl) for 30 min. […] The eluate of each organ was diluted with water and analysed by radio-HPLC.
The organs (tumour, kidney, liver) were separately homogenised in a 2 mL tube together with 3 grinding balls (3 mm diameter) and 1 mL of extraction buffer (850 μL 1 M HEPES pH7.4, 100 μL 20 mM PMPA and 100 μL 1M NaCl) for 10 min at 30 Hz. […] The eluate of each organ was diluted with water and analysed by radio-HPLC. […]

[5] = target: T2, human serum albumin (Homo sapiens, UniProt P02768); assay: HSA binding on Chiralpak HSA column; type: in vitro ADME; conditions: Chiralpak HSA column (50 × 3 mm, 5 μm)
T2 construct: purchased H13H-2433
Protocol: The mobile phase (A: NH4OAc, 50 mM in water, pH 7 and B: isopropanol) was freshly prepared for each experiment and only used for one day. The column was kept at room temperature and each run was stopped after detection of the signal to reduce the acquisition time. All substances were dissolved in a 0.5 mg/ml concentration in 50% 2-propanol and 50% 50 mM pH 6.9 ammonium acetate buffer. […] All nine reference substances were injected consecutively to establish a non-linear regression with Origin Pro 2016G.

[6] = tested on: LNCaP tumor-bearing SCID mice; assay: Biodistribution at 1 h p.i. with competition (co-injected PMPA); type: in vivo; conditions: co-injected with PMPA (8 mg/kg)
Protocol: FIG. 11: Biodistribution [% ID/g] of ^18F-rhPSMAs co-injected with PMPA (8 mg/kg) at 1 h p.i in LNCaP tumor-bearing SCID mice. Data are expressed as mean±SD (n=3).

T1 sequence (Q04609 whole entry): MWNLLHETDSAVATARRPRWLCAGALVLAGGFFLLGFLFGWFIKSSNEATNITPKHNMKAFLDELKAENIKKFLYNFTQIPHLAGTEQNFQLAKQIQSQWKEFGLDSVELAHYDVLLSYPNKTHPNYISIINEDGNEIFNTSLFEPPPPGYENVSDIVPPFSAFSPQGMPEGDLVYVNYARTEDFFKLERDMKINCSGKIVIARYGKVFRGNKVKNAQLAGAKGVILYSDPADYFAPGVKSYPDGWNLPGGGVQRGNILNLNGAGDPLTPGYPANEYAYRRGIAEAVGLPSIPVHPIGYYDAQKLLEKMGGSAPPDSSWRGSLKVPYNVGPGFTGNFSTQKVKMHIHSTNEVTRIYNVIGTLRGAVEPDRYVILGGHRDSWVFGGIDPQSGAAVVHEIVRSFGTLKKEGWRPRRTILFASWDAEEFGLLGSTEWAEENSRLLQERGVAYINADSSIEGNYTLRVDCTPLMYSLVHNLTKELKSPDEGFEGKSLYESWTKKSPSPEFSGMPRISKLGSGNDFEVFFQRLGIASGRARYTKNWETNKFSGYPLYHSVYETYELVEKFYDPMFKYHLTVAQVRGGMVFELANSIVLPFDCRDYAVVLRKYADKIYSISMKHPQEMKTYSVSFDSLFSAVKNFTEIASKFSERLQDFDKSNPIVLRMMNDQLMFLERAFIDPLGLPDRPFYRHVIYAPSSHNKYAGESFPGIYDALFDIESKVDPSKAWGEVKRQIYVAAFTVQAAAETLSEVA
T2 sequence (P02768 25-609): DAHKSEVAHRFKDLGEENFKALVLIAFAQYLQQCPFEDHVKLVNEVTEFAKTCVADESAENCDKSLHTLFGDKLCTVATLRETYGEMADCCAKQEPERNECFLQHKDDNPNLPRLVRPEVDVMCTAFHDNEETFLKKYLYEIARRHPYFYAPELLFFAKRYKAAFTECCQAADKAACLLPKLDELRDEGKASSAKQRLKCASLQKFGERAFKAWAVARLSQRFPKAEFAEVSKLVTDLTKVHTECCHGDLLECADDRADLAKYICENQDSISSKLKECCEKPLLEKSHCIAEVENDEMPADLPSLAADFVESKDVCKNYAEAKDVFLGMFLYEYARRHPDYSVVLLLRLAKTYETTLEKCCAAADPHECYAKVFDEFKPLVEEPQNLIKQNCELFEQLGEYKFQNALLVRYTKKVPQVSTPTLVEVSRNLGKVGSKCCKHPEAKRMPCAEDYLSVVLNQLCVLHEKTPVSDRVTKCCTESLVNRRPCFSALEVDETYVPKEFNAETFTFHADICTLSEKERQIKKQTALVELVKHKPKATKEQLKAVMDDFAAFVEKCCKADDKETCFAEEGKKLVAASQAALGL

CC(C)(C)[Si](F)(c1ccc(C(=O)NC[C@@H](NC(=O)CC[C@H](C(=O)O)N2CCN(CC(=O)[O-])CCN(CC(=O)[O-])CCN(CC(=O)[O-])CC2)C(=O)N[C@H](CCCCNC(=O)CCC(=O)NCCC[C@@H](NC(=O)CC[C@H](NC(=O)N[C@@H](CCC(=O)O)C(=O)O)C(=O)O)C(=O)O)C(=O)O)cc1)C(C)(C)C.[Ga+3] [rhPSMA7.1, [^19F][^natGa]D-Dap-R-DOTAGA-rhPSMA7]
individual internalization rates ([1]; c=0.5 nM, single measurements): 77.5 % of [^125I]IB-KuE and 61.8 % of [^125I]IB-KuE and 70.6 % of [^125I]IB-KuE and 68.0 % of [^125I]IB-KuE and 67.9 % of [^125I]IB-KuE and 71.5 % of [^125I]IB-KuE
internalization rate Mean ([1]; mean): 69.55 % of [^125I]IB-KuE
Biodistribution adrenals [2]: 2.0 ± 0.25 % ID/g
Biodistribution blood [2]: 0.53 ± 0.13 % ID/g
Biodistribution bone [2]: 0.50 ± 0.31 % ID/g
Biodistribution heart [2]: 0.53 ± 0.03 % ID/g
Biodistribution intestine [2]: 0.30 ± 0.16 % ID/g
Biodistribution kidneys [2]: 220 ± 24.8 % ID/g
Biodistribution liver [2]: 0.75 ± 0.62 % ID/g
Biodistribution lung [2]: 1.1 ± 0.21 % ID/g
Biodistribution muscle [2]: 0.32 ± 0.30 % ID/g
Biodistribution pancreas [2]: 0.45 ± 0.12 % ID/g
Biodistribution spleen [2]: 20.0 ± 4.2 % ID/g
Biodistribution stomach [2]: 0.28 ± 0.17 % ID/g
Biodistribution tumor ([2]; LNCaP tumor): 14.1 ± 4.1 % ID/g
IC50 ([3]; HBSS+1% BSA, single measurements, read-out: individual IC50 measurements): 5.04 nM and 7.11 nM and 8.31 nM and 4.97 nM and 6.44 nM and 8.74 nM and 6.91 nM and 7.27 nM
IC50 ([3]; mean of individual measurements, read-out: IC50 Mean): 6.85 nM
percentage change of isomer in sample with respect to its proportion in the injected solution [4]: largest positive percentage change
HSA Binding [5]: 97.7%
Biodistribution adrenals [6]: 0.003 ± 0.004 % ID/g
Biodistribution blood [6]: 0.86 ± 0.40 % ID/g
Biodistribution bone [6]: 0.33 ± 0.24 % ID/g
Biodistribution heart [6]: 0.37 ± 0.16 % ID/g
Biodistribution intestine [6]: 0.66 ± 0.32 % ID/g
Biodistribution kidneys [6]: 10.9 ± 2.5 % ID/g
Biodistribution liver [6]: 0.43 ± 0.07 % ID/g
Biodistribution lung [6]: 0.85 ± 0.29 % ID/g
Biodistribution muscle [6]: 0.17 ± 0.15 % ID/g
Biodistribution pancreas [6]: 0.16 ± 0.10 % ID/g
Biodistribution spleen [6]: 0.21 ± 0.08 % ID/g
Biodistribution stomach [6]: 0.97 ± 0.81 % ID/g
Biodistribution tumor ([6]; LNCaP tumor): 0.94 ± 0.22 % ID/g
